From PubChem BioAssay (NCI) come the findings set out here.

Each structure is given as a SMILES string.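 Cells were grown in 96-well plates and exposed to each compound for 48 hours at five concentrations; endpoints were interpolated linearly between bracketing concentrations, or set to the highest concentration if not reached. TGI marks complete inhibition of growth.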 Where only a bound is given, the exact number is not on record here.

Some test systems named below: BT-549 breast; U251 CNS; UACC-257 melanoma; HCT-116 colon; M14 melanoma; OVCAR-8 ovarian; EKVX NSCLC; A549 NSCLC; SF-539 CNS; K-562 leukemia; HOP-62 NSCLC; SW-620 colon; LOX IMVI melanoma; RXF 393 renal; UO-31 renal; SF-295 CNS; KM12 colon; SK-MEL-5 melanoma; MCF7 breast.
What all share (assay): NCI tumour cell line growth inhibition, 48 h

For the compound `CCOC(=O)C(CC(C)C)NC(=O)C(N)Cc1ccc(N(CCCl)CCCl)cc1` (configuration not stated), the TGI in the assay with BT-549 breast stood at 46 µM; in the assay on U251 CNS, 22.4 µM; in the assay with UACC-257 melanoma, 26.9 µM; with HCT-116 colon, 17.9 µM; with M14 melanoma it was 11.7 µM; in the assay with OVCAR-8 ovarian it was 24.9 µM. Also, the TGI with EKVX NSCLC was 37.5 µM; with A549 NSCLC, 45.1 µM; with SF-539 CNS, 9.59 µM; in the assay on K-562 leukemia, 41.6 µM; in the assay with HOP-62 NSCLC, 22 µM; in the assay with SW-620 colon it was 35.7 µM. Besides, the TGI in the assay on LOX IMVI melanoma was 0.278 µM; in the assay with RXF 393 renal, 5.12 µM; with UO-31 renal, 5.97 µM; in the assay with SF-295 CNS, 21.9 µM; in the assay on KM12 colon, 20.1 µM; in the assay on SK-MEL-5 melanoma, 19.8 µM.

Take `CCOC(=O)c1csc(NC(=O)CCN2CCOCC2)n1`: the TGI in the assay with MCF7 breast is > 100 µM; in the assay with U251 CNS, > 100 µM; in the assay with UACC-257 melanoma, > 100 µM; with M14 melanoma, > 100 µM; in the assay with OVCAR-8 ovarian, 87.2 µM; in the assay on EKVX NSCLC it was > 100 µM. Moreover, the TGI in the assay on A549 NSCLC, in the assay on SF-539 CNS, in the assay with K-562 leukemia, in the assay on HOP-62 NSCLC, in the assay with SW-620 colon and with LOX IMVI melanoma was > 100 µM in each case. The TGI with RXF 393 renal, with UO-31 renal, with SF-295 CNS and with SK-MEL-5 melanoma was > 100 µM throughout.

Consider `N=C(N)SCCSC(=N)N`, for which the TGI with MCF7 breast, with BT-549 breast, with U251 CNS, in the assay with UACC-257 melanoma, with HCT-116 colon and in the assay on M14 melanoma was > 100 µM in each case. Moreover, the TGI in the assay on OVCAR-8 ovarian, with EKVX NSCLC, in the assay on A549 NSCLC, in the assay with K-562 leukemia, with HOP-62 NSCLC and in the assay with SW-620 colon was > 100 µM in each case. Besides, the TGI in the assay with LOX IMVI melanoma, in the assay on RXF 393 renal, in the assay on UO-31 renal, in the assay on SF-295 CNS, in the assay with KM12 colon and in the assay on SK-MEL-5 melanoma was > 100 µM each time.

As to `Cc1cc2c(=O)c3ccc(Cl)cc3[nH]c2c(C(=O)O)c1C`, the TGI in the assay with U251 CNS, with UACC-257 melanoma, with HCT-116 colon, with M14 melanoma, in the assay on OVCAR-8 ovarian and in the assay on EKVX NSCLC was > 100 µM throughout. Moreover, the TGI in the assay with A549 NSCLC, in the assay with SF-539 CNS, in the assay on K-562 leukemia, in the assay on HOP-62 NSCLC, in the assay with SW-620 colon and in the assay on LOX IMVI melanoma was > 100 µM in each case. Further, the TGI in the assay with RXF 393 renal, in the assay with UO-31 renal, in the assay with SF-295 CNS, in the assay on KM12 colon and with SK-MEL-5 melanoma was > 100 µM throughout.

On to `COc1ccc2c(c1)C(=O)/C(=C/c1ccccc1)C2`, for which the TGI in the assay on MCF7 breast, with BT-549 breast, in the assay with U251 CNS, in the assay with M14 melanoma, with OVCAR-8 ovarian and with K-562 leukemia was > 100 µM in each case. Besides, the TGI in the assay with HOP-62 NSCLC, in the assay on RXF 393 renal, in the assay with UO-31 renal, with SF-295 CNS, in the assay on KM12 colon and with SK-MEL-5 melanoma was > 100 µM in each case.

On to `O=c1n(Cc2ccccc2)c2ccccc2n1CC1CS1` (configuration not stated), for which the TGI in the assay with HCT-116 colon, in the assay with M14 melanoma, with OVCAR-8 ovarian, in the assay on EKVX NSCLC, in the assay with A549 NSCLC and with SF-539 CNS was > 100 µM each time. In addition, the TGI with K-562 leukemia, with HOP-62 NSCLC, in the assay with SW-620 colon, in the assay with LOX IMVI melanoma, with UO-31 renal and in the assay with SF-295 CNS was > 100 µM throughout. In addition, in the assay on KM12 colon, the TGI was > 100 µM.

For `O=C1CNC(=O)N1`, the TGI in the assay on MCF7 breast, in the assay on U251 CNS, in the assay on UACC-257 melanoma, in the assay with HCT-116 colon, in the assay on OVCAR-8 ovarian and in the assay on EKVX NSCLC was > 1120 µM in each case. For the same compound, the TGI in the assay on A549 NSCLC was > 1120 µM; in the assay with SF-539 CNS it was > 1120 µM; in the assay on K-562 leukemia it was > 630 µM; with HOP-62 NSCLC, > 1120 µM; in the assay with SW-620 colon it was > 1120 µM; in the assay on LOX IMVI melanoma it was > 1120 µM. Further, the TGI in the assay with RXF 393 renal, in the assay on UO-31 renal, in the assay on SF-295 CNS, with KM12 colon and in the assay on SK-MEL-5 melanoma was > 1120 µM each time.

`Nc1ccc(N=Nc2ccc(-c3ccc(N=Nc4c(S(=O)(=O)O)cc5cc(S(=O)(=O)O)c(N=Nc6ccc([N+](=O)[O-])cc6)c(N)c5c4O)cc3)cc2)c2cc(S(=O)(=O)O)ccc12`: the TGI with U251 CNS, with UACC-257 melanoma, in the assay on HCT-116 colon, in the assay on M14 melanoma, in the assay on OVCAR-8 ovarian and with EKVX NSCLC was > 100 µM in each case. Besides, the TGI with A549 NSCLC, in the assay with SF-539 CNS, with K-562 leukemia, in the assay with HOP-62 NSCLC, with SW-620 colon and in the assay with LOX IMVI melanoma was > 100 µM throughout. The TGI in the assay with RXF 393 renal, with UO-31 renal, with SF-295 CNS, in the assay with KM12 colon and with SK-MEL-5 melanoma was > 100 µM throughout.

`O=C(O)CSc1nc2ccccc2[nH]1`: the TGI with BT-549 breast, with U251 CNS, with UACC-257 melanoma, in the assay on HCT-116 colon, with M14 melanoma and with OVCAR-8 ovarian was > 100 µM in each case. Moreover, the TGI with EKVX NSCLC, with A549 NSCLC, in the assay on K-562 leukemia, in the assay on HOP-62 NSCLC, in the assay with SW-620 colon and in the assay on LOX IMVI melanoma was > 100 µM each time. The TGI in the assay with RXF 393 renal, in the assay on UO-31 renal, with SF-295 CNS and with KM12 colon was > 100 µM throughout.

For `COc1ccc(-c2nnc3c4ccccc4sn23)cc1`, the TGI with U251 CNS was > 100 µM; in the assay on UACC-257 melanoma it was 73.8 µM; with HCT-116 colon, > 100 µM; in the assay on M14 melanoma, > 100 µM; in the assay with OVCAR-8 ovarian, > 100 µM; with EKVX NSCLC, > 100 µM. Further, the TGI in the assay on A549 NSCLC, in the assay with SF-539 CNS, in the assay on K-562 leukemia, in the assay with HOP-62 NSCLC, in the assay on SW-620 colon and with LOX IMVI melanoma was > 100 µM each time. Besides, the TGI in the assay on RXF 393 renal is 82.5 µM; in the assay with UO-31 renal it was 80.5 µM; with KM12 colon, > 100 µM; with SK-MEL-5 melanoma, > 100 µM.

For `CCOC(=O)C(=NN(C)c1ncccc1N)C(=O)OCC`, the TGI is 39.7 µM in the assay with MCF7 breast; > 100 µM in the assay on BT-549 breast; > 100 µM in the assay on U251 CNS; 58.7 µM with UACC-257 melanoma; 65.4 µM in the assay on HCT-116 colon; > 100 µM with M14 melanoma. For the same compound, the TGI was > 100 µM in the assay with OVCAR-8 ovarian; > 100 µM with A549 NSCLC; 69.8 µM in the assay on SF-539 CNS; 59.1 µM in the assay with K-562 leukemia; > 100 µM with HOP-62 NSCLC; 70.3 µM in the assay on SW-620 colon. The TGI in the assay with LOX IMVI melanoma is 38.1 µM; in the assay with RXF 393 renal, > 100 µM; in the assay with UO-31 renal it was > 100 µM; in the assay with SF-295 CNS, > 100 µM; in the assay on KM12 colon, > 100 µM; in the assay with SK-MEL-5 melanoma it was > 100 µM.

For `CC1(C)CCCC2(C)[C@@H]1CC[C@]13C[C@](C)(CC[C@@H]21)[C@@H]3CO` (some centres not stated), the TGI with U251 CNS, in the assay on UACC-257 melanoma, with HCT-116 colon, with M14 melanoma, in the assay on A549 NSCLC and with SF-539 CNS was > 100 µM throughout. Also, the TGI in the assay with K-562 leukemia, in the assay with HOP-62 NSCLC, in the assay with SW-620 colon, with LOX IMVI melanoma, in the assay on RXF 393 renal and in the assay on UO-31 renal was > 100 µM each time. The TGI with SF-295 CNS, with KM12 colon and in the assay with SK-MEL-5 melanoma was > 100 µM throughout.

With `CC12CCC3C(CCC4(O)C=CCCC34C=O)C1(O)CC(O)C2c1ccc(=O)oc1` (configuration not stated), the TGI worked out at 0.344 µM with MCF7 breast; 0.197 µM in the assay with U251 CNS; 0.478 µM in the assay with UACC-257 melanoma; 0.22 µM with HCT-116 colon; 0.193 µM with OVCAR-8 ovarian; 0.087 µM in the assay with EKVX NSCLC. Further, the TGI was determined as 0.0646 µM in the assay on A549 NSCLC; 0.0735 µM in the assay with SF-539 CNS; 1.29 µM with K-562 leukemia; 0.0954 µM in the assay on HOP-62 NSCLC; 0.222 µM in the assay with SW-620 colon; 0.216 µM in the assay with LOX IMVI melanoma. Further, the TGI amounted to 0.0693 µM with RXF 393 renal; 0.141 µM with UO-31 renal; 0.149 µM in the assay on SF-295 CNS; 0.367 µM with KM12 colon; 0.0887 µM with SK-MEL-5 melanoma.

Turning to `COc1cc(CN(C)N2C(=O)c3cccc4cc([N+](=O)[O-])cc(c34)C2=O)cc(OC)c1OC`, the TGI with MCF7 breast, in the assay on BT-549 breast, with U251 CNS, in the assay with M14 melanoma, with OVCAR-8 ovarian and in the assay with K-562 leukemia was > 100 µM in each case. The TGI in the assay on HOP-62 NSCLC is 51.9 µM; in the assay on RXF 393 renal it was 90.3 µM; with UO-31 renal it was > 100 µM; with SF-295 CNS it was > 100 µM; in the assay on KM12 colon, > 100 µM; in the assay with SK-MEL-5 melanoma it was > 100 µM.
